Assay results published in patent publication US20230089789A1, “INTESTINAL TRACT FUNCTION-IMPROVING AGENT” (CYCLOCHEM BIO CO., LTD., priority 2020, published 2023).

Key:
[1] = tested on: IgA; assay: IgA measurement in cecal contents (Rat IgA ELISA Kit); format: in vivo, SD rats; conditions: 5.5% in NF diet, 8 weeks; for IgA amount of cecal contents: compared to the NF group (p<0.01), FIG. 2
Procedure: (§1) Fifteen 3-week-old SD rats (Japan SLC, Inc.) were acclimatized to the facility for one week and then divided into three groups of NF group (No Fiber diet), α-CD group (5.5% α-CD-containing NF diet) and LS group (5.5% LS-containing NF diet), each including five rats, and each rat was kept in one cage. In this test, the experiment was conducted in accordance with the Guidelines for Animal Experimentation of Kobe Women's University (Kobe, Japan), and approved by the animal ethics committee of the Graduate School of Science of Health and Nutrition at Kobe Women's University. The breeding environment was at 23±3° C. with a humidity of 60±10%, and cycles of 12-hour light/12-hour dark were provided. The rats were allowed to freely take diets and water and bread for eight weeks with experimental diets.
(§2) The diets were prepared in such a manner that the α-CD or LS content of dry experimental diet became 5.5%. After mixing each powder well, 100 ml of water was added, and thus mixed material was used as an experimental diet.
(§3) The rats of each group were fasted overnight eight weeks after starting breeding and then dissected under isoflurane anesthesia, and the cecum were taken out.
One hundred milligrams of cecal contents were measured and stirred after adding 1 ml of Elix water. After stirring, the resultant was centrifuged under the conditions of 10000 rpm for 30 min at 4° C., and the supernatant was used as a sample for IgA measurement. IgA amount of each sample was measured using Rat IgA ELISA Kit (Bethyl Laboratories, Inc.). Statistical analysis was conducted in the same manner as in 1) above.

[2] = tested on: Caco-2 cells; assay: Cytotoxicity of food emulsifiers alone (LDH activity); format: cell-based, human
Procedure: (§4) Caco-2 cells were inoculated to a 96-well plate at 10000 cells/well and cultured for three days to confluency. The Caco-2 cells were washed with PBS and then treated with a food emulsifier SE (250 μg/mL HLB16P, 1000 μg/mL HLB11S or 500 μg/mL […]) or monolaurin (500 μg/mL) and α-CD for an hour, and the LDH activities of each were measured. The treatment amounts of α-CD were 1/10, 1, 1.5, 2, 5 and 10 times the weight ratios for each SE. For monolaurin, the treatment amounts of α-CD were 1/10, 1, 1.5, 2, 5, 10 and 15 times the weight ratios.
For comparison, the LDH activities of Caco-2 cells which were treated with the SE (HLB16P (0-1000 μg/mL), HLB11S or HLB16S (each 0-2000 μg/mL)) or monolaurin (0-2500 μg/mL) alone for an hour were also measured.

[3] = tested on: cecal microflora (Lactobacillales); assay: Analysis of cecal microflora by the T-RFLP method; format: in vivo, SD rats; conditions: 5.5% in NF diet, 8 weeks; compared to the NF group or the LS group
Procedure: as §1, with “diets. […]” for “diets.”
(§5) A cut was made in the cecum taken out in 1 above, and the contents were squeezed out. The weights of the cecal contents were measured. […]
(§6) The cecal contents which were thawed for the microflora analysis were mixed and homogenized, and the analysis of the microflora by the T-RFLP method, measurement of the SCFAs amounts and the pH analysis were entrusted (TechnoSuruga Laboratory Co., Ltd.). The total SCFAs amounts were calculated by adding up the amounts of lactic acid, succinic acid, acetic acid, propionic acid and butyric acid.

[4] = Measurement of SCFAs amounts in cecal contents; format: in vivo, SD rats; conditions: 5.5% in NF diet, 8 weeks
Procedure: as §1, §2, §3
A cut was made in the cecum taken out in 1 above, and the contents were squeezed out. The weights of the cecal contents were measured. Immediately after the weight measurement, the contents were frozen with liquid nitrogen and stored at −80° C.
as §6

[5] = Feces amount measurement; format: in vivo, SD rats; conditions: 5.5% in NF diet, feces of three days from the 45th day
Procedure: as §1, §2
A drainboard was placed on the floor of each breeding cage 44 days after starting the test, and the feces that fell under the drainboard were collected every day for three days in succession after the 45th day. The weight (wet weight) of the collected feces (for the three days) was measured, and then after drying under reduced pressure, the feces weight after drying (dry weight) was measured.

[6] = pH analysis of cecal contents; format: in vivo, SD rats; conditions: 5.5% in NF diet, 8 weeks
Procedure: as §1, with “diets. […]” for “diets.”
as §5, §6

[7] = tested on: putrefactive products (indole, p-cresol and phenol); assay: Putrefactive product measurement in cecal contents; format: in vivo, SD rats; conditions: 5.5% in NF diet, 8 weeks
Procedure: as §1, §2, §3
Analysis of the amounts of putrefactive products (indole, p-cresol and phenol) in cecal contents was entrusted (TechnoSuruga Laboratory Co., Ltd.).

[8] = tested on: Caco-2 cells; assay: Transepithelial electrical resistance decrease by food emulsifier; format: cell-based, human; conditions: HLB16P 62.5 μg/mL and α-CD 0-2000 μg/mL, 120 minutes, FIG. 7A
Procedure: Caco-2 cells were seeded to a Transwell insert at 0.4×10^6 cells/mL using Corning (registered trademark) BioCoat (trademark) intestinal epithelial cells (Caco-2) differentiation environment kit (Corning International K.K.), cultured for one day in a normal medium and cultured for three days in a differentiation medium. The Caco-2 cells were washed with PBS, then treated with HLB16P (62.5 μg/mL) and α-CD (0-2000 μg/mL) and incubated for 120 minutes. During the incubation, the transepithelial electrical resistance values were measured every 20 minutes by Millicell ERS-2 resistance measurement system (Nihon Millipore K.K.).
In the same manner, the transepithelial electrical resistance values were measured after treatment with HLB16P (62.5 μg/mL) and α-CD (2000 μg/mL), each water-soluble dietary fiber or oligosaccharide (2000 μg/mL).

[9] = tested on: Caco-2 cells; assay: Effect on cytotoxicity of food emulsifiers (LDH activity); format: cell-based, human; conditions: one hour
Procedure: as §4

[10] = tested on: mucin; assay: Mucin measurement in cecal contents (Fecal mucin Assay Kit); format: in vivo, SD rats; conditions: 5.5% in NF diet, 8 weeks, FIG. 1
Procedure: as §1
The diets were prepared in such a manner that the α-CD or LS content of dry experimental diet became 5.5%. After mixing each powder well, 100 ml of water was added, and thus mixed material was used as an experimental diet. […]
The mucin amounts of the cecal contents were measured using Fecal mucin Assay Kit (Cosmo Bio Co., Ltd.), statistically analyzed by the Dunnett's test and the Student's t-test using Pharmaco Analyst I (Ver. 13.1.1; Three S Japan) and shown with the average values ±standard errors.

[11] = compared to the LS group (p<0.05)
[12] = compared to the LS group (p<0.01, Student's t-test)
[13] = HLB11S 1000 μg/mL, weight ratio, FIG. 5B
[14] = HLB16P 250 μg/mL, weight ratio, FIG. 5A
[15] = HLB16S 500 μg/mL, weight ratio, FIG. 5C

OC[C@H]1O[C@@H](O[C@H]2[C@H](O)[C@@H](O)[C@@H](O[C@]3(CO)O[C@H](CO)[C@@H](O)[C@@H]3O)O[C@@H]2CO)[C@H](O)[C@@H](O)[C@H]1O [LS, Lactosucrose, reference compound]
IgA amount of cecal contents [1]: increased significantly

CCCCCCCCCCCC(=O)OCC(O)CO (stereo not shown) [monolaurin, Monolaurin]
concentration at which cytotoxicity to the Caco-2 cells was observed [2]: ≥ 156.25 µg/mL | concentration at which cytotoxicity to the Caco-2 cells was very high [2]: ≥ 625 µg/mL

OC[C@H]1O[C@@H]2O[C@H]3[C@H](O)[C@@H](O)[C@@H](O[C@H]4[C@H](O)[C@@H](O)[C@@H](O[C@H]5[C@H](O)[C@@H](O)[C@@H](O[C@H]6[C@H](O)[C@@H](O)[C@@H](O[C@H]7[C@H](O)[C@@H](O)[C@@H](O[C@H]1[C@H](O)[C@H]2O)O[C@@H]7CO)O[C@@H]6CO)O[C@@H]5CO)O[C@@H]4CO)O[C@@H]3CO [α-CD]
proportion of the Lactobacillales in cecal microflora [3]: increased | increase in amount of acetic acid ([4]; compared to the LS group): remarkable | increase in amount of lactic acid ([4]; compared to the LS group): remarkable | increase in amount of n-butyric acid ([4]; compared to the LS group): remarkable | increase in amount of propionic acid ([4]; compared to the LS group): remarkable | increase in amount of succinic acid ([4]; compared to the LS group): remarkable | increase in total SCFAs amount ([4]; compared to the LS group): remarkable | amount of acetic acid in cecal contents ([4]; compared to the NF group): increased significantly | amount of lactic acid in cecal contents ([4]; compared to the NF group): increased significantly | amount of n-butyric acid in cecal contents ([4]; compared to the NF group): increased significantly | amount of propionic acid in cecal contents ([4]; compared to the NF group): increased significantly | amount of succinic acid in cecal contents ([4]; compared to the NF group): increased significantly | total SCFAs amount in cecal contents ([4]; compared to the NF group): increased significantly | feces amount, dry weight [5, 11]: increased significantly | feces amount, wet weight [5, 11]: increased significantly | feces amount, wet weight ([5]; compared to the NF group (p<0.01), FIG. 4A): increased significantly | feces amount, dry weight ([5]; compared to the NF group (p<0.01), FIG. 4B): increased significantly | decrease in the cecal pH ([6]; compared to the LS group): remarkable | cecal pH ([6]; compared to the NF group): decreased significantly | IgA amount of cecal contents [1]: increased significantly | IgA-increasing effect ([1]; α-CD group vs LS group, Student's t-test): comparable to that of LS | production of the putrefactive products [7, 12]: suppressed significantly | amounts of the putrefactive products (indole, p-cresol and phenol) in cecal contents ([7]; compared to the NF group (p<0.01), FIG. 3): decreased significantly | suppression of the decrease in transepithelial electrical resistance value by the SE [8]: suppressed by the addition of α-CD in a concentration-dependent manner | suppression of the cytotoxicity of the food emulsifier ([9]; 1000 μg/mL HLB11S and 1000 μg/mL test substance, LDH activity, FIG. 6): exhibits such an effect | amount of α-CD with which cytotoxicity of HLB11S disappeared completely [9, 13]: 10 times the amount | amount of α-CD with which cytotoxicity of HLB11S was reduced significantly [9, 13]: ≥ 0.1 times the amount | amount of α-CD with which cytotoxicity of HLB16P disappeared completely [9, 14]: 10 times the amount | amount of α-CD with which cytotoxicity of HLB16P was reduced significantly [9, 14]: ≥ 1.5 times the amount | amount of α-CD with which cytotoxicity of HLB16S disappeared completely [9, 15]: 5 times the amount | amount of α-CD with which cytotoxicity of HLB16S was reduced significantly [9, 15]: ≥ 1.5 times the amount | amount of α-CD with which cytotoxicity of monolaurin disappeared completely ([9]; monolaurin 500 μg/mL, weight ratio, FIG. 5D): ≥ 10 times the amount | mucin amount of cecal contents [10, 12]: increased significantly | mucin amount of cecal contents ([10]; compared to the NF group (p<0.01)): increased significantly
